This note sets out measurements from patent US11297839B2, “Stable compositions of uncomplexed iodine and methods of use” (ioTech International, Inc., priority 2014, dated 2022).

One data set in a line: Compatibility of surface active agents with molecular iodine base composition. It is filed as physicochemical. Conditions: 985 micromolar molecular iodine base with n-propanol, peracetic acid, hydrogen peroxide, iodate, citric acid; 37 degrees centigrade 6 weeks. Here is the method:
A further objective of this invention was to incorporate surface active agents in the compositions contemplated in this application to enhance the cleaning and wetting properties of said compositions. A series of surface active agents were screened to insure their compatibility with the molecular iodine based composition contemplated in this application. A 985 micromolar concentration of molecular iodine was prepared by dissolving elemental iodine crystals in a sealed glass volumetric flask containing the base composition. […] Samples of the following surface active agents or classes of surface active agents were obtained from various manufacturers and evaluated for compatibility with molecular iodine.
As for `CCCCCCCC(=O)O` [capryllic acid], the “compatibility of surface active agent with molecular iodine composition” value is recorded as “compatible at all concentrations tested”. Same read-out and setting: the value for `CCCCCCCCC(=O)OCC(O)CO` (stereo not shown) [nonanoic acid 2,3-dihydroxypropyl ester] was “compatible at all concentrations tested”. Still for that read-out and setting: the value for “nonylphenoxypolyethyleneoxy ethanol sulfate” was “compatible at all concentrations tested”; that for `CCCCCCCCCCCC(=O)OCC(O)CO` (stereo not shown) [dodecanoic acid 2,3-dihydroxypropyl ester] was “compatible at all concentrations tested”.

The next data set in a line: Compatibility of biocides with 300 ppm molecular iodine base composition. Particulars: biocide added at increasing concentrations to 300 ppm molecular iodine base, iodate excess 2; 6 weeks.
As to `OO` [hydrogen peroxide], the “compatibility with molecular iodine (colour, thiosulfate titratable iodine)” value is recorded as “did not reduce thiosulfate titratable iodine”. As for `CCO` [ethanol], the “compatibility with molecular iodine (colour, thiosulfate titratable iodine)” value is “did not reduce thiosulfate titratable iodine”. Same read-out and setting: the value for `CC(C)O` [Formulation 2-propanol, 2-propanol] was “did not reduce thiosulfate titratable iodine”; that for `CCCO` [Formulation 1-propanol, 1-propanol] was “did not reduce thiosulfate titratable iodine”. Still for that read-out and setting: the value for `CC(=O)OO` [peracetic acid] was “did not reduce thiosulfate titratable iodine”; that for `CCCCCCCC(=O)O` [octanoic acid] was “did not reduce thiosulfate titratable iodine”.
